Values of other authors as cited in patent publication US11234954B2, “Low-dose doxepin for treatment of sleep disorders in elderly patients” (Pernix Sleep, Inc., priority 2006, dated 2022).

Conditions: major active metabolite of doxepin; cited from earlier work

## CNCC/C=C1\c2ccccc2COc2ccccc21 [desmethyldoxepin, Desmethyldoxepin]
  half-life: 51 h
